Results on 2 compounds are retold here after patent US10487093B2, “Heterocyclic compounds, in particular 2-oxo-4,4,5,5,6,6,7,7-octahydrobenzoxazole derivatives, and their use as antibacterial compounds” (priority 2016, dated 2019).

The structures appear in SMILES notation. In brackets after ≈: the same amount, converted by molar mass. A value given as a limit tells only on which side of the number the result lay.

In assay [1] the test system is Staphylococcus aureus ATCC 29213. The assay can be described thus: MIC, broth microdilution (CLSI) versus planktonic bacteria. Format: cell-based. As to conditions: ATCC29213; Staphylococcus aureus ATCC 29213; 16-20 h; mode of three independent experiments; read-out: MIC, Sa ATCC 29213. In general terms: Broth dilution looks for growth in wells or tubes with falling amounts of substance.

Assay [2] relates to Haemophilus influenzae ATCC 49247. The description is as above. Format: cell-based. As to conditions: ATCC49247; Haemophilus influenzae ATCC 49247; 16-20 h; mode of three independent experiments; read-out: MIC, Hi ATCC 49247.
Assay [3] has as its system E. coli NCTC 13476. The description is as above. As to conditions: NCTC13476; Escherichia coli NCTC 13476; 16-20 h; mode of three independent experiments; read-out: MIC, Ec NCTC 13476. The class given is cell-based.
Assay [4] relates to Mycobacterium smegmatis ATCC 19420. Described as above. Format: cell-based. As to conditions: Mycolicibacterium smegmatis, ATCC19420, 16-20 h, mode of three independent experiments, read-out: MIC, Ms ATCC 19420.
For assay [5], the system named is Acinetobacter baumannii ATCC 19606. Described as above. Format: cell-based. As to conditions: ATCC19606; Acinetobacter baumannii ATCC 19606; 16-20 h; mode of three independent experiments; read-out: MIC, Ab ATCC 19606.
For assay [6], the system named is Enterobacter cloacae NCTC 13406. The description is as above. The conditions noted are these: NCTC13406; Enterobacter cloacae NCTC 13406; 16-20 h; mode of three independent experiments; read-out: MIC, Ecl NCTC 13406. Format: cell-based.
The subject of assay [7] is Pseudomonas aeruginosa ATCC 27853. The description is as above. As to conditions: ATCC27853; Pseudomonas aeruginosa ATCC 27853; 16-20 h; mode of three independent experiments; read-out: MIC, Pa ATCC 27853. Format: cell-based.
The subject of assay [8] is Streptococcus pneumoniae ATCC 49619. The description is as above. The class given is cell-based. As to conditions: ATCC49619; Streptococcus pneumoniae ATCC 49619; 16-20 h; mode of three independent experiments; read-out: MIC, Sp ATCC 49619.
For assay [9], the system named is Neisseria meningitidis ATCC 13090. The assay is described as above. Format: cell-based. As to conditions: ATCC13090, 16-20 h, mode of three independent experiments.
Assay [10] deals with E. coli MG1655 D87G. The class given is cell-based, Escherichia coli. As to conditions: compared to the isogenic parent strain E. coli MG1655; D87G mutation on DNA gyrase subunit GyrA.
The test system of assay [11] is human hepatic cell line (HepG2 ATCC HB-8065). The assay can be described thus: Human cell viability assay (CellTiter-Glo). The conditions noted are these: Homo sapiens, HepG2, 24 h, read-out: IC50 (μg/mL) HepG2.
Assay [12] has as its system Escherichia coli ATCC 25922. The assay can be described thus: MIC, broth microdilution (CLSI) versus planktonic bacteria. The class given is cell-based. The conditions noted are these: ATCC25922; Escherichia coli ATCC 25922; 16-20 h; mode of three independent experiments; read-out: MIC, Ec ATCC 25922.
Assay [13] has as its system E. coli ATCC BAA-2452. The assay is described as above. Format: cell-based. The conditions noted are these: Escherichia coli ATCC BAA-2452; 16-20 h; mode of three independent experiments; read-out: MIC, Ec ATCC BAA 2452.
Assay [14] has as its system Acinetobacter baumannii NCTC 13420. Described as above. The class given is cell-based. The conditions noted are these: NCTC13420; Acinetobacter baumannii NCTC 13420; 16-20 h; mode of three independent experiments; read-out: MIC, Ab NCTC 13420.
The subject of assay [15] is E. coli MG1655 S83L. The class given is cell-based, Escherichia coli. The conditions noted are these: compared to the isogenic parent strain E. coli MG1655; S83L mutation on DNA gyrase subunit GyrA.
Assay [16] has as its system E. coli MG1655. The assay can be described thus: MIC, broth microdilution (CLSI) versus planktonic bacteria. The class given is cell-based, Escherichia coli. The conditions noted are these: Escherichia coli, MG1655, read-out: MIC, Ec MG1655 WT.

Turning to `COc1ccc2ccc(=O)n(CCN[C@H]3CC[C@H]4[C@@H](C3)OC(=O)N4c3ccc4c(n3)NC(=O)CO4)c2n1` [Compound 4, 1-(2-{[(3aS,6S,7aR)-2-oxo-3-{3-oxo-2H,3H,4H-pyrido[3,2-b][1,4]oxazin-6-yl}-octahydro-1,3-benzoxazol-6-yl]amino}ethyl)-7-methoxy-1,2-dihydro-1,8-naphthyridin-2-one], the MIC in [1] was less than 1 µg/mL; in assay [2], 1 to 10 µg/mL (≈ 1.97 to 19.7 µM); in assay [3], less than 1 µg/mL; in assay [4], less than 1 µg/mL; in [5] it was less than 1 µg/mL; in assay [6], less than 1 µg/mL. Also, the MIC was 1 to 10 µg/mL (≈ 1.97 to 19.7 µM) in assay [7]; less than 1 µg/mL in assay [8]; less than 1 µg/mL in assay [9]; less than 1 µg/mL in [12]; less than 1 µg/mL in assay [13]; less than 1 µg/mL in assay [14]. Also, in [16], the MIC was less than 1 µg/mL. In addition, the “Fold increase in MIC, E. coli MG1655 D87G” value in assay [10] was 1 fold. Besides, the IC50 in assay [11] was 10 to 100 µg/mL (≈ 19.7 to 197 µM). The “Fold increase in MIC, E. coli MG1655 S83L” value in assay [15] came to 1 fold.
Regarding `N#Cc1cccc(-c2cccc(CN[C@H]3CC[C@H]4[C@@H](C3)OC(=O)N4c3ccc4c(n3)NC(=O)CO4)c2O)n1` [Compound 18, 6-[3-({[(3aS,6S,7aR)-2-oxo-3-{3-oxo-2H,3H,4H-pyrido[3,2-b][1,4]oxazin-6-yl}-octahydro-1,3-benzoxazol-6-yl]amino}methyl)-2-hydroxyphenyl]pyridine-2-carbonitrile], the MIC in assay [1] was less than 1 µg/mL; in assay [2], 1 to 10 µg/mL (≈ 1.95 to 19.5 µM); in assay [3], 1 to 10 µg/mL (≈ 1.95 to 19.5 µM); in assay [5] it was less than 1 µg/mL; in assay [6], less than 1 µg/mL; in assay [7], 1 to 10 µg/mL (≈ 1.95 to 19.5 µM). The MIC was less than 1 µg/mL in assay [8]; less than 1 µg/mL in assay [9]; less than 1 µg/mL in assay [12]; 1 to 10 µg/mL (≈ 1.95 to 19.5 µM) in assay [13]; less than 1 µg/mL in assay [14]; less than 1 µg/mL in assay [16]. The “Fold increase in MIC, E. coli MG1655 D87G” value in [10] is 1 fold. Also, the IC50 in [11] lay in the range of 1 to 10 µg/mL (≈ 1.95 to 19.5 µM). Moreover, in assay [15], the “Fold increase in MIC, E. coli MG1655 S83L” value is listed as 2 fold.
